In publication PMC9610434, “Discovery of 2′,6-Bis(4-hydroxybenzyl)-2-acetylcyclohexanone, a Novel FtsZ Inhibitor” (Molecules, 2022):
Like-named read-outs stand apart in the source and are kept apart here.

Legend:
Bacillus subtilis 168 [1] = test system: Bacillus subtilis 168; parameters: method as in PMID 28002947; conditions: cited from earlier work
[2] = target: T1, S. pneumoniae FtsZ (SpnFtsZ) (Streptococcus pneumoniae, UniProt A0A0H2ZNE0); conditions: cited from earlier work
Bacillus subtilis 168 [3] = test: Growth inhibition / MIC by agar dilution, Bacillus subtilis 168; format: cell-based
Procedure: (§1) The Minimum Inhibitory Concentration (MIC) was determined as described previously, following the agar dilution method. From an overnight culture of Bacillus subtilis 168 (Bs 168), 2% inoculation was performed to a fresh tube containing Luria Broth. When the bacteria reached an O.D600 = 0.4, the culture was serially diluted to a dilution factor of 10^4. Then, 20 μL of the diluted culture was spotted on plates containing different concentrations of 3 (0, 1, 3, 5, 7, 9, 10, 11, 12, 13 μM) and incubated, at 37 °C, for […], after which the colonies were counted. Similar procedure was performed for Streptococcus pneumoniae TIGR4. Bacteria were grown in Todd–Hewitt Yeast Broth up to 0.4 OD600 and serially diluted. Upon addition on to BHI agar plates containing different concentrations of 3 (0.5, 1, 1.5, 2, 3, 5, 7, 10 μM), the colonies were incubated for 24 h, at 37 °C, with 5% CO2. […] IC50 was determined by plotting percentage inhibition versus log of concentration of drug, using GraphPad Prism 7 software.

Z-ring in Bs 168 cells = test: Immunostaining for Z-ring and nucleoid, Bs 168; format: cell-based, Bacillus subtilis; conditions: Bs 168, 8 μM, 10 min
Procedure: (§2) Immunostaining of Bs 168 cells was performed as described previously. Briefly, from an overnight culture of Bs 168, 2% inoculation was performed to a fresh tube containing Luria Broth. When the bacteria reached an O.D600 = 0.4, the culture was divided into two fractions. To one fraction, 8 μM 3 was added, and to another, an equal volume of DMSO. The cells were incubated at 37 °C under shaking conditions for 10 min. Cells were then fixed for 30 min with 2.8% formaldehyde and 0.04% glutaraldehyde. Cells were permeabilized using 0.1% Triton X-100 and then treated with 1 mg/mL lysozyme and 5 mM EDTA for 45 min. Treatment with 0.5% BSA for 30 min was performed to block non-specific binding sites. Then, 1 h treatment each with primary antibody, anti-FtsZ antibody raised in rabbit (1:50 dilution) and secondary antibody (1:400), Alexa Fluor^TM 594 goat anti-rabbit IgG (H+L) was performed. Nucleoid staining was performed with 1 µg/mL 4′-6-diamidino-2-phenylindole (DAPI) for 20 min. Images were captured using Confocal Laser Scanning Microscope—Carl Zeiss, LSM 780. Similar procedure was followed for Sp TIGR4, which was treated with 2 μM 3 for 1 h before following the above immunostaining procedure.

SpnFtsZ [4] = test: Atomic force microscopy of SpnFtsZ filaments; format: biochemical, Streptococcus pneumoniae; conditions: 10 μM compound, 4 μM SpnFtsZ; control filaments 9.02 ± 5.2 nm
Procedure: Then, 4 μM SpnFtsZ in PKM buffer was incubated with or without 10 μM 3, for 20 min, at 25 °C. Upon addition of 1 mM GTP, FtsZ was polymerized for 300 s, at 37 °C. AFM samples were prepared according to a previously described method. Then, 20 μL of each sample was added onto the mica sheet and allowed to absorb on it for 15 min. The sheet was then washed with MilliQ and allowed to dry overnight. The samples were imaged the next day using MFP-3D BIO, Asylum Research USA.

SpnFtsZ [5] = test: FtsZ sedimentation assay; format: biochemical, Streptococcus pneumoniae; conditions: 10 μM compound, 10 μM SpnFtsZ, p = 0.02
Procedure: SpnFtsZ (10 μM) in PKM buffer was incubated with different concentrations of 3 (0.5, 1, 3, 6, 10) for 20 min at 25 °C. The reaction mixture was allowed to polymerize by adding 1 mM GTP and incubated for 600 s, at 37 °C. The mixture was then subjected to ultra-centrifugation at 60,000 RPM for 30 min at 30 °C. The supernatant was collected and quantified using Bradford’s reagent. The amount of FtsZ present in the pellet was assessed by subtracting the supernatant concentration from the total protein [30].

[6] = target: T2, FtsZ from Bacillus subtilis (BsFtsZ) (Bacillus subtilis, UniProt P17865); test: Transmission electron microscopy of BsFtsZ filaments; format: biochemical; conditions: 20 μM compound, 5 μM BsFtsZ
T2 construct: made in house
T2 sequence (P17865 whole entry): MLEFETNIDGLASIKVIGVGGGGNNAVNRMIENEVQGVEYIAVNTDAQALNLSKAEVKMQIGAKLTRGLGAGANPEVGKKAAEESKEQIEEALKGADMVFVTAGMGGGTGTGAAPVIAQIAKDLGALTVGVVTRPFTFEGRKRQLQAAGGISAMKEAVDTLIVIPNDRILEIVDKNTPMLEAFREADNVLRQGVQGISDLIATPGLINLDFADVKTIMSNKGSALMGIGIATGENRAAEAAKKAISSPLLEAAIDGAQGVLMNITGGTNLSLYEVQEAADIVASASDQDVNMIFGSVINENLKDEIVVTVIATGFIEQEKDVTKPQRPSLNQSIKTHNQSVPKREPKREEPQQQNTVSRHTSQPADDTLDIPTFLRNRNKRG
Procedure: In another experiment, BsFtsZ (5 μM) in PKM buffer was incubated without and with 20 μM 3 for 20 min, at 25 °C. The mixture was then polymerized by the addition of 1 mM GTP for 600 s, at 37 °C. Samples for imaging were prepared using the same procedure described above.

SpnFtsZ [7] = test: FtsZ polymerization by light scattering at 400 nm; format: biochemical, Streptococcus pneumoniae; conditions: 10 μM SpnFtsZ, 1 mM GTP, increasing concentration
Procedure: SpnFtsZ (10 μM) in 50 mM PIPES pH 7.4, 50 mM KCl and 5 mM MgCl2 (PKM) buffer was incubated with different concentrations of 3 (0, 1, 2, 3, 5, 6, 7) for 20 min, at 25 °C. After the addition of 1 mM GTP, the polymerization was monitored for 600 s, at 37 °C, using light scattering at 400 nm in a JASCO FP-8300 spectrofluorometer.

tubulin = test: Tubulin polymerization assay; format: biochemical, goat; conditions: 13 μM tubulin, light scattering at 350 nm
Procedure: Streptococcus pneumoniae FtsZ (SpnFtsZ) and Bacillus subtilis FtsZ (BsFtsZ) were purified as described previously. Tubulin from goat brain was purified as described previously. The concentration of all the proteins was estimated using Bradford’s reagent.
Tubulin polymerization was performed as described previously. Purified tubulin (13 μM) in PEM buffer (50 mM PIPES pH 6.8, 3 mM MgCl2 and 1 mM EGTA) + 10% DMSO was incubated with 3 for 10 min on ice. Then, 1 mM GTP was added to the mixture, and polymerization was monitored by light scattering in SoftMax Spectra Multi Plate reader for 30 min, at 37 °C. The excitation and emission wavelengths were set to 350 nm.

Z-ring in Sp TIGR4 = test: Immunostaining for Z-ring and nucleoid, Sp TIGR4; format: cell-based, Streptococcus pneumoniae; conditions: Sp TIGR4, 2 μM, 1 h
Procedure: as §2

membrane of Bs 168 cells = test: Membrane staining of live cells with FM 4-64; format: cell-based, Bacillus subtilis; conditions: Bs 168, 8 μM, 10 min
Procedure: Membrane staining of live Bs 168 cells was performed using FM 4–64 stain [28]. Bs 168 cells were grown as described above and treated with 8 μM 3 or equivalent volume of DMSO for 10 min. Cells were pelleted down and resuspended in PBS containing 10 μg/mL FM-4–64 dye. After incubation for another 10 min under shaking conditions in the dark, the cells were washed with PBS to remove excess dye. The cells were then mounted on the slide pre-coated with poly-L-lysine and covered with a coverslip. Images were captured in Confocal Laser Scanning Microscope—Carl Zeiss, LSM 780.

[8] = test system: Streptococcus pneumoniae TIGR4; test: Growth inhibition / MIC by agar dilution, Streptococcus pneumoniae TIGR4; format: cell-based; conditions: for MIC: Streptococcus pneumoniae
Procedure: as §1

SpnFtsZ [9] = test: Transmission electron microscopy of SpnFtsZ filaments; format: biochemical, Streptococcus pneumoniae; conditions: 10 μM compound
Procedure: SpnFtsZ (10 μM) in PKM buffer was incubated without and with 10 μM 3 for 20 min, at 25 °C. The mixture was then polymerized by the addition of 1 mM GTP for 200 s, at 37 °C. Samples for EM were prepared on a fresh carbon–formvar-coated copper EM grid according to a previously described method. Imaging was performed the next day using JEOL JEM 1220 HRTEM (200 kV). ImageJ software was used to determine the length of the FtsZ filaments.

[10] = target: T1, S. pneumoniae FtsZ (SpnFtsZ); test: Binding to SpnFtsZ by tryptophan fluorescence
Procedure: The binding of 3 to SpnFtsZ was assessed using tryptophan fluorescence. The decrease in the fluorescence intensity of SpnFtsZ in the presence of 3 was measured. Then, 2 μM of SpnFtsZ in 50 mM PIPES pH 7.4, 50 mM KCl, was incubated with different concentrations of 3 (0.2, 0.5, 1, 1.5, 2, 3, 4, 5, 7, 10), at 25 °C, for 10 min. The fluorescence spectra were measured at an emission range of 310 nm to 410 nm, after excitation at 295 nm in JASCO FP-8300 spectrofluorometer. Due to the absorbance of 3 at 340 nm, inner filter correction was performed using the below equation:(1) Fcorrected=Fobserved∗antilog ODex+ODem/2
The binding constant, Kd, was determined using the following equation:(2) ∆F=∆Fmax×L/Kd+L
ΔF is the change in the fluorescence intensity of SpnFtsZ, ΔFmax is the maximal change in the fluorescence of SpnFtsZ when the receptor site is fully occupied, and [L] is the concentration of 3.

[11] = test system: S. pneumoniae TIGR4 cells; test: Scanning electron microscopy of cell morphology; format: cell-based, Streptococcus pneumoniae; conditions: Sp TIGR4, 2 μM, 1 h, SEM
Procedure: Sp TIGR4 was grown as described above and treated with 2 μM 3 or equivalent volume of DMSO for 1 h. The cells were then fixed with 2.8% formaldehyde and 0.04% glutaraldehyde and resuspended in PBS as described earlier. A small volume (5 μL) was spotted on an aluminium foil and allowed to air dry completely. Images were captured using Field Emission Gun-Scanning Electron Microscope (FEG-SEM) JSM-7600F.

[12] = Cytotoxicity testing in mouse skin L929 cells; format: cell-based; conditions: read-out: GI50 (concentration for 50% cell growth inhibition)
alkaline phosphatase = test: Alkaline phosphatase activity assay; format: biochemical; conditions: 5, 10 and 20 μM, PNPP substrate
Procedure: Alkaline phosphatase assay was performed as described previously. Then, 2 U/mL Alkaline Phosphatase enzyme in glycine NaOH buffer, pH 10.4 with 100 mM glycine, 1 mM MgCl2, and 0.1 mM ZnCl2 was incubated with different concentrations (5, 10, and 20 μM) of 3 for 10 min on ice. Immediately after the addition of 250 μM para-4-nitrophenyl phosphate (PNPP), the absorbance at 410 nm was measured for 700 s in a JASCO V-730 spectrophotometer.

S. pneumoniae = test system: S. pneumoniae; parameters: method as in PMID 18801997; conditions: cited from earlier work

T1 sequence (A0A0H2ZNE0 whole entry): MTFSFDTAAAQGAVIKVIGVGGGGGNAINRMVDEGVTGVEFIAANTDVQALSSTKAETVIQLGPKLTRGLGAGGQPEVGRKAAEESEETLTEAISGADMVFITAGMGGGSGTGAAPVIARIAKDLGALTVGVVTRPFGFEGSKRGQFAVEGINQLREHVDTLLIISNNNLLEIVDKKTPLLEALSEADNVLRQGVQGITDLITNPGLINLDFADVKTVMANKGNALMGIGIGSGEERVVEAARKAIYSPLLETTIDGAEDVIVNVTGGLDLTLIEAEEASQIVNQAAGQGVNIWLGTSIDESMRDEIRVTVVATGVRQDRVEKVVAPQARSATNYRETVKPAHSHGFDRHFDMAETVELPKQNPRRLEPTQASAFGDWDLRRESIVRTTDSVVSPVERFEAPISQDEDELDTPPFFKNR

O=C(/C=C/c1ccc(O)cc1)C1CCC/C(=C\c2ccc(O)cc2)C1=O (centres unmarked) [Compound 1]
IC50 (Bacillus subtilis 168 [1]; Bs168): 1.2 ± 0.5 µM | MIC (Bacillus subtilis 168 [1]; Bs168 cells): 2.0 to 4.0 µg/mL | Kd [2]: 4 ± 1.1 µM | melting point: 225 to 227 °C

O=C(CCc1ccc(O)cc1)c1cccc(Cc2ccc(O)cc2)c1O [Compound 2, 1-{2-Hydroxy-3-(4-hydroxybenzyl)phenyl}-3-(4-hydroxyphenyl)propan-1-one]
inhibition at 15 µM (Bacillus subtilis 168 [3]; Bacillus subtilis, 168, treatment with 15 µM, read-out: inhibition of growth of B. subtilis (Bs168)): 21.5 ± 0.5%

O=C(CCc1ccc(O)cc1)[C@@H]1CCC[C@H](Cc2ccc(O)cc2)C1=O [Compound 3, 2-(4-Hydroxybenzyl)-6-{3-(4-hydroxyphenyl)propanoyl}cyclohexan-1-one]
effect on nucleoid separation (Z-ring in Bs 168 cells; DAPI): no effect on the nucleoid separation | dividing cells with a prominent Z-ring (Z-ring in Bs 168 cells; control 35 ± 17%): 3 ± 3% | average height of FtsZ aggregates (AFM) (SpnFtsZ [4]): 233.2 ± 151.2 nm | reduction of FtsZ pellet compared to control (SpnFtsZ [5]): 17% | MIC (Bacillus subtilis 168 [3]; Bacillus subtilis, 168, 6 h, Bs168, agar dilution, 6 h, 37 °C, read-out: MIC): 11 µM | MIC (Bacillus subtilis 168 [3]; Bacillus subtilis, 168, Bs168 cells, converted from µM, read-out: MIC (equivalent)): ≤ 3.5 µg/mL | IC50 (Bacillus subtilis 168 [3]; Bacillus subtilis, 168, Bs168, inhibition of proliferation): 4.97 ± 0.01 µM | BsFtsZ aggregation (TEM) [6]: large aggregates of BsFtsZ | effect on FtsZ polymerization (light scattering) (SpnFtsZ [7]): inhibits FtsZ polymerization | inhibition of tubulin polymerization (tubulin): no significant inhibition | effect on nucleoid separation (Z-ring in Sp TIGR4; DAPI): no effect on the nucleoid separation | percentage of cells without a Z-ring (Z-ring in Sp TIGR4; control 50%): 73% | effect on cell membrane (membrane of Bs 168 cells): remains intact | IC50 ([8]; Streptococcus pneumoniae TIGR4, inhibition of proliferation): 1 ± 0.01 µM | MIC ([8]; TIGR4, 24 h, Streptococcus pneumoniae TIGR4, agar dilution, 24 h, read-out: MIC): 2 µM | MIC ([8]; TIGR4, S. pneumoniae, converted from µM, read-out: MIC (equivalent)): ≤ 0.7 µg/mL | FtsZ aggregation (TEM) (SpnFtsZ [9]; 10 μM SpnFtsZ): large aggregates were seen throughout the grid | length of FtsZ filaments (TEM) (SpnFtsZ [9]; control 2.1 ± 1.2 μm): 0.7 ± 0.6 μm | Kd [10]: 2.2 ± 0.3 µM | effect on cell morphology and membrane [11]: no changes in the morphology | GI50 [12]: 7 ± 2.35 µM | inhibition of alkaline phosphatase activity (alkaline phosphatase): no detectable inhibitory activity

NC(=O)c1c(F)ccc(OCc2nc3cc(Cl)cnc3s2)c1F [PC190723 4, PC190723]
MIC (S. pneumoniae): more than 64 µg/mL | MIC (S. pneumoniae; converted from µg/mL): > 180 µM
